Laboratory results reported in patent EP4678643A1, “KRAS INHIBITOR COMPOUND, PHARMACEUTICAL COMPOSITION THEREOF, AND USE THEREOF” (Sunshine Lake Pharma Co., Ltd., priority 2023, dated 2024).
Where two headings read alike, the source gives them in different places.

How the values were obtained:
[1] = tested on: pERK in H358 cells (KRAS p.G12C); assay: Inhibitory effect on intracellular pERK by In-Cell Western assay, H358; format: cell-based; settings: Homo sapiens, NCI-H358, pERK inhibition, compound incubation 3 h
Description: (§1) 1. Determination of Inhibitory Effect on Intracellular pERK by In-Cell Western Assay
(§2) (1) On the first day, the following cells were revived and cultured with the corresponding culture medium and incubated at 37 °C, 5% CO2 until confluence.
(§3) (2) On the third day, the culture medium was removed, the cells were rinsed once with DPBS, 2 mL of TrypLE™ trypsin was added for digestion, and the cells were placed at room temperature until the cells detached. (3) 5 mL fresh culture medium was added to resuspend cells to terminate the digestion, and the cells were gently pipetted and centrifuged at 1000 rpm for 5 minutes at room temperature. (4) The supernatant was removed, and 5 mL fresh culture medium was added to resuspend the cells and count cells. (5) The cells were plated in a 384-well plate with appropriate cell concentration by adjusting with complete culture medium and incubated at 37 °C, 5% CO2 for overnight. (6) 200 nL of the prepared serial dilution compound (DMSO final concentration was 0.5%) was added and incubated at 37 °C, CO2 for 3 h (HPAC cell lines for 1 h). (7) The cells were fixed. (8) The cells were washed twice with PBS. (9) The blocking solution was added and the cells were incubated at room temperature for 1 h. (10) The blocking solution was removed, and the primary antibody (phospho-ERK Rabbit mAb + GAPDH (D4C6R) Mouse mAb) was added and the cells were incubated at 4 °C for overnight. (11) The cells were washed twice with PBST (PBS + 0.05% Tween 20) for 2 minutes each time. (12) PBST was removed and secondary antibody (IRDye 800CW Goat anti-Rabbit IgG (H+L) + IRDye 680RD Goat anti Mouse IgG (H+L)) was added and incubated away from light at room temperature. (14) Secondary antibody was discarded and the cell was washed twice with PBST, 2 minutes each time. (15) 384-well plate was inverted and centrifuged at 1000 rpm at room temperature for 1 minute, and the 384-well plate was scanned with Odyssey CLx. (16) Data analysis: • a) Assay stability check was peformed by using DMSO and reference control data: [formula] [formula] • b) nonlinear fitting of Compound IC50: Y = Bottom + (Top−Bottom)/(1+10^(∧)((LogIC50−X)×HillSlope)). [formula]

[2] = tested on: pERK in MKN1 cells (KRAS WTdep); assay: Inhibitory effect on intracellular pERK by In-Cell Western assay, MKN1; format: cell-based; settings: Homo sapiens, MKN-1, pERK inhibition, compound incubation 3 h
Description: as §1, §2, §3

[3] = tested on: pERK in HPAC cells (KRAS p.G12D); assay: Inhibitory effect on intracellular pERK by In-Cell Western assay, HPAC; format: cell-based; settings: Homo sapiens, pERK inhibition, compound incubation 1 h, read-out: HPAC, IC50 (nM) KRASp.G12D
Description: as §1, §2
as §3, with “[formula] • b) nonlinear fitting of Compound IC50: Y = Bottom + (Top−Bottom)/(1+10^(∧)((LogIC50−X)×HillSlope)). [formula]” left out

[4] = tested on: pERK in NCI-H727 cells (KRAS p.G12V); assay: Inhibitory effect on intracellular pERK by In-Cell Western assay, NCI-H727; format: cell-based; settings: Homo sapiens, pERK inhibition, compound incubation 3 h
Description: as §1, §2
as §3, with “[formula] • b) nonlinear fitting of Compound IC50: Y = Bottom + (Top−Bottom)/(1+10^(∧)((LogIC50−X)×HillSlope)). [formula]” left out

[5] = tested on: pERK in A549 cells (KRAS p.G12S); assay: Inhibitory effect on intracellular pERK by In-Cell Western assay, A549; format: cell-based; settings: Homo sapiens, pERK inhibition, compound incubation 3 h
Description: as §1, §2, §3

[6] = tested on: pERK in HCT 116 cells (KRAS p.G13D); assay: Inhibitory effect on intracellular pERK by In-Cell Western assay, HCT 116; format: cell-based; settings: Homo sapiens, pERK inhibition, compound incubation 3 h
Description: as §1, §2, §3

[7] = tested on: pERK in AGS cells (KRAS G12D); assay: Inhibitory effect on intracellular pERK by In-Cell Western assay, AGS; format: cell-based; settings: pERK inhibition, compound incubation 3 h, read-out: AGS, IC50 (nM) KRAS p.G12D
Description: as §1, §2
as §3, with “CLx.” for “CLx. (16) Data analysis: • a) Assay stability check was peformed by using DMSO and reference control data: [formula] [formula] • b) nonlinear fitting of Compound IC50: Y = Bottom + (Top−Bottom)/(1+10^(∧)((LogIC50−X)×HillSlope)). [formula]”

KRAS G12D-GTP & cRAF = KRAS G12D-GTP & cRAF (Homo sapiens, UniProt P01116, G12D); assay: KRAS G12D/cRAF Binding Assay (HTRF); settings: competitive binding, 665/615 nm ratio
Sequence of KRAS G12D-GTP & cRAF (P01116 1-188 isoform P01116-2 G12D): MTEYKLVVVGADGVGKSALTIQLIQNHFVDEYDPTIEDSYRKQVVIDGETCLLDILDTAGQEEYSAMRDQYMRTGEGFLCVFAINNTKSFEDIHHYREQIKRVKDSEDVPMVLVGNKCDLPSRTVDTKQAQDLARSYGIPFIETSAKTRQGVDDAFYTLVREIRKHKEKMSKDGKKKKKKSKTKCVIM
Excerpt: 2. KRAS G12D/cRAF Binding Assay

KRAS G12D-GTP & SOS1 = KRAS G12D-GTP & SOS1 (Homo sapiens, UniProt P01116, G12D); assay: KRAS G12D/SOS1 Binding Assay (HTRF); settings: competitive binding, 665/615 nm ratio
Sequence of KRAS G12D-GTP & SOS1 (P01116 1-188 isoform P01116-2 G12D): as above
Excerpt: 3. KRAS G12D/SOS1 Binding Assay

[8] = mouse, in vivo
Description: Pharmacokinetic evaluation of the compounds of the present invention by intravenous injection or oral gavage in mice
The inventors conducted a pharmacokinetic evaluation of the compounds of this invention in mice.
The compounds of the present invention were administered to test animals in the form of a solution of 5% DMSO + 30% PEG400 + 65% saline, 10% DMSO + 10% Kolliphor HS15 + 80% Saline, 10% DMSO + 89% (25% SBE-B-CD) + (2% HCl), 20% PEG400 + 80% sterile water for injection, or 10% DMA + 10% HS15 + 30% PEG400 + 50% sterile water for injection. The animals were fasted for 12 hours before administration and had free access to water. For the intravenous administration group, the dose was 2 mg/kg/day, qd. Venous blood samples (approximately 0.15 mL) were collected at the following time points after administration: 0.083, 0.25, 0.5, 1.0, 2.0, 5.0, 7.0 and 24 hours. EDTA-K2 was pre-added to the blood collection tube as an anticoagulant. Blood samples were centrifuged at 12,000 rpm for 2 minutes, and plasma was collected and stored at -20°C or -70°C. For the intravenous administration group, the dose was 5 mg/kg/day, qd. Venous blood samples (approximately 0.15 mL) were collected at the following time points after administration: 0.25, 0.5, 1.0, 2.0, 5.0, 7.0 and 24 hours. EDTA-K2 was pre-added to the blood collection tube as an anticoagulant. Blood samples were centrifuged at 12,000 rpm for 2 minutes, and plasma was collected and stored at -20°C or -70°C.
The collected plasma samples were processed (frozen plasma was thawed at room temperature and vortexed for 15 seconds. 10-20 µL of plasma was added to 120-150 µL of acetonitrile solution containing the internal standard and vortexed for 5 minutes. The sample was centrifuged at 4,000 rpm for 5 minutes. 100 µL of the supernatant was added to 120-150 µL of methanol/water (v/v = 1/1) and mixed). The concentrations of the compounds in the plasma were analyzed by LC-MS/MS.

| SMILES | IC50 [1] | IC50 [2] | IC50 [3] | IC50 [4] | IC50 [5] | IC50 [6] | IC50 [7] | IC50 (KRAS G12D-GTP & cRAF) | IC50 (KRAS G12D-GTP & SOS1) | pharmacokinetic properties in mice [8] | IC50 ([7]; Homo sapiens, AGS, 3 h) |
| --- | --- | --- | --- | --- | --- | --- | --- | --- | --- | --- | --- |
| C#Cc1c(F)ccc2cc(O)cc(-c3nc(C#CC)c4c(N5CCCOCC5)nc(OCC56CCCN5CC(F)C6)nc4c3F)c12 (centres unmarked) [Compound 1] | 0.4 nM | 1.9 nM | 0.3 nM | 1 nM | 0.6 nM | 2.1 nM | 0.2 nM | 7.9 nM | 16.3 nM | good pharmacokinetic properties | – |
| C#Cc1c(F)ccc2cc(O)cc(-c3nc(C#CCC)c4c(N5CCCOCC5)nc(OCC56CCCN5CC(F)C6)nc4c3F)c12 (centres unmarked) [Compound 3] | 0.7 nM | 3.7 nM | 0.6 nM | 2.2 nM | – | – | – | 7.4 nM | 14.8 nM | – | 0.5 nM |
